# Where “and” joins values, the source holds several entries; their conditions need not be identical. Equal values may be shown once.
# Assay: Henry solubility constant Hcp at 298.15 K (mol/(m3 Pa))
# Details: reference: Zhang et al. (2013)
row,Structure (SMILES),Henry solubility constant Hcp
1,"Cc1ccccc1C [1,2-dimethylbenzene]",0.0027 and 0.0022
2,c1ccccc1 [benzene],0.0027 and 0.0035
3,CCc1ccccc1 [ethylbenzene],0.0019 and 0.0014
4,Cc1ccccc1 [methylbenzene],0.0028
5,O=[N+]([O-])c1ccccc1 [nitrobenzene],0.14
6,ClC=C(Cl)Cl [trichloroethene],0.0016 and 0.0013

# — Sander's compilation of Henry's law constants (doi:10.14233/ajchem.2013.13584)
